The nature of the data set: solubility determination in organic solvents. The class given is physicochemical. From the text: It is confirmed that Ir(dbq-tBuP)2(acac) can be dissolved in each of 2-ethoxyethanol, 1,4-dioxane, chloroform, and toluene.

For 1 molecule, solubility and Solubility x results are on record in patent US8877351B2, “Organometallic complex, and lighting apparatus, and electronic device using the organometallic complex” (Semiconductor Energy Laboratory Co., Ltd., priority 2008, dated 2014).

Take `CC(=O)C=C(C)[O][Ir]([c]1cc(C(C)(C)C)ccc1-c1cnc2c3ccccc3c3ccccc3c2n1)[c]1cc(C(C)(C)C)ccc1-c1cnc2c3ccccc3c3ccccc3c2n1` [Ir(dbq-tBuP)2(acac), (acetylacetonato)bis{2-(4-tert-butylphenyl)-dibenzo[f,h]quinoxalinato}iridium(III)]: the solubility reads like this: (in chloroform) at least 1200 µg/mL; (in toluene) at least 1200 µg/mL. The Solubility x reads like this: (solvent: Chloroform) 1.2 ≦ x g/L; (solvent: Ethanol) “x < 0.6 g/L”; (solvent: Isopropyl alcohol) “x < 0.6 g/L”; (solvent: Toluene) 1.2 ≦ x g/L.
